Common to all, as to assay type: biochemical
Experiment [1] concerns the target T1, Human PKK (Homo sapiens (Human), UniProt P03952). Kind of experiment: Inhibition of PKK (Ki), kinetic assay. As to conditions: 24° C., IC50 corrected for KM. As for the experimental part:
Measurements were performed in a kinetic interval every 2nd minute for 16 min using a Spectramax M5 (Molecular Devices) with the following settings of the wavelength excitation of 350 nm and wavelength emission of 450 nm. The number of the compound corresponds to the number of the Example in the experimental section.
The pIC50 values were then fitted using a four-parametric fitting procedure using GraphPad Prism (version 6; GraphPad Software, Inc.).
Where the IC50 is in molar and the KM value in mM.

The target of experiment [2] is human TK1 (Homo sapiens (Human), UniProt P06870). Kind of experiment: Inhibition of TK1 (Ki). As to conditions: column head prints IC50, text above the table says Ki values. The method, boiled down:
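Trypsin-activated human TK1 (31.25 nM or 1 U/mL) incubated at 24 °C with 0.1 mM H-Pro-Phe-Arg-AMC and compound in pH 7.8 Tris/NaCl buffer with 0.1% BSA, 1% DMSO; fluorescence read kinetically over 16 min. IC50 from Vmax (2-12 min) four-parameter fit, converted to Ki using substrate KM.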

For experiment [3], the target named is PKK in kaolin activated human platelet poor plasma (Homo sapiens (Human), UniProt P03952). The experiment in a line: Inhibition of PKK in kaolin activated human PPP. Conditions: global fit over 25, 75, 250, 750 μg/mL kaolin. The protocol:
Platelet poor plasma (PPP) obtained from human wholeblood, anticoagulated with Na-Citrat, was incubated with various concentrations of the test compound together with either 25, 75, 250, or 750 μg/mL kaolin in assay buffer for 20 min at 37° C. such that for each kaolin dose used a concentration response was obtained for the test compound.

Experiment [4] addresses T1, Human PKK. Kind of experiment: Inhibition of PKK, endpoint assay (human PKK). Conditions: substrate H-Pro-Phe-Arg-AMC, 1 h room temperature. The protocol:
Subsequently, PPACK II (Calbiochem) was added as a stop solution to achieve a final concentration of 1 μM and fluorescence was measured using an Envision Reader (PerkinElmer) with the wavelength excitation setting of 355 nm and the wavelength emission setting of 460 nm.

Each structure is given as a SMILES string.

Sequence of human TK1 (P06870 25-262): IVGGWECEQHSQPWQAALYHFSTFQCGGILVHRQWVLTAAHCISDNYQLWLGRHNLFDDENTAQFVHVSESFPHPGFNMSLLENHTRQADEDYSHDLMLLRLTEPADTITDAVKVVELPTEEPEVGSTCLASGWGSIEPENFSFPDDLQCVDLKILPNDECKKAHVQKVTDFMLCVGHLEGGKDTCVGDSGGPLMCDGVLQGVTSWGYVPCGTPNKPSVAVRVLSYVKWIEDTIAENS
Sequence of PKK in kaolin activated human platelet poor plasma (P03952 391-638): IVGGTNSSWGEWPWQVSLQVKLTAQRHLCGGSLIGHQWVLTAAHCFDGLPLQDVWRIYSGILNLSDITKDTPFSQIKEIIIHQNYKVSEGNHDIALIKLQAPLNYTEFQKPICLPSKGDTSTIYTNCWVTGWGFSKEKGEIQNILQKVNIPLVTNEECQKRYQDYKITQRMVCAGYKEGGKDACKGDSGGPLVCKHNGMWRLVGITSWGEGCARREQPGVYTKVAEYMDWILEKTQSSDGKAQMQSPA
Sequence of PKK in kaolin activated human platelet poor plasma (P03952 20-390 partner): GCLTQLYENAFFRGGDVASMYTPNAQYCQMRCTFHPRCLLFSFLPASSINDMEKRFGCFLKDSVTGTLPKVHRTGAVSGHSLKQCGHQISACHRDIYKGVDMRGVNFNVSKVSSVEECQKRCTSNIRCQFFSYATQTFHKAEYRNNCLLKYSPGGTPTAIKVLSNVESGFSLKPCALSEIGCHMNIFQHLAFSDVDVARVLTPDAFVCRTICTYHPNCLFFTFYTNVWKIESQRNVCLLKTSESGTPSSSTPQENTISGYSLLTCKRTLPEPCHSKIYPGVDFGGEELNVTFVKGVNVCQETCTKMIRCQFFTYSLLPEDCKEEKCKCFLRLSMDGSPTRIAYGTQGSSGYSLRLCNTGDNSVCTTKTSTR
T1 sequence (P03952 391-638): as the sequence (P03952 391-638) above
T1 sequence (P03952 20-390 partner): as the sequence (P03952 20-390 partner) above

On to `Cc1nc(N2CC3CC3C2)ccc1Cn1cc(C(=O)N[C@@H]2CCc3c2n[nH]c3C)nc1C` (stereo partly drawn) [Example 97, 1-[(6-(3-Azabicyclo[3.1.0]hexan-3-yl}-2-methyl-pyridin-3-yl)methyl]-2-methyl-N-[(6R)-3-methyl-2H,4H,5H,6H-cyclopenta[c]pyrazol-6-yl]-1H-imidazole-4-carboxamide], for which, in experiment [1], the Ki came out at 1 nM. In addition, the figures for the IC50 in experiment [2] and in experiment [4] were more than 10000 nM and 2 nM, respectively. For the same molecule, the IC90 in experiment [3] turned out to be 302 nM.

On to `Cc1[nH]nc2c1CC[C@H]2NC(=O)c1cn(Cc2ccc(N3CC4(CC4)C3)nc2)cn1` [Example 104, 1-[(6-{5-Azaspiro[2.3]hexan-5-yl}pyridin-3-yl)-methyl]-N-[(6R)-3-methyl-2H,4H,5H,6H-cyclo-penta[c]pyrazol-6-yl]-1H-imidazole-4-carboxamide], for which, in experiment [1], the affinity, expressed as Ki, was 3 nM. The IC50 is more than 10000 nM in experiment [2] and 3 nM in experiment [4]. For the same molecule, the IC90 in experiment [3] was 444 nM.

In experiment [1], `Cc1nc(N2CC3CC3C2)ccc1Cc1cc(C(=O)N[C@@H]2CCc3c(C)n[nH]c32)sc1C#N` (stereo partly drawn) [Example 8, 4-[(6-{3-Azabicyclo[3.1.0]hexan-3-yl}-2-methylpyridin-3-yl)methyl]-5-cyano-N-[(6R)-3-methyl-1H,4H,5H,6H-cyclopenta[c]pyrazol-6-yl]thiophene-2-carboxamide] came in with a Ki of 3 nM. Moreover, the IC50 in experiment [2] was more than 10000 nM; in experiment [4], 4 nM. The IC90 in experiment [3] came to 1820 nM.

As to `Cc1[nH]nc2c1CC[C@H]2NC(=O)c1cn(Cc2ccc(N3CC4CC4C3)nc2)cn1` (stereo partly drawn) [Example 103, 1-[(6-{3-Azabicyclo[3.1.0]hexan-3-yl}pyridin-3-yl)-methyl]-N-[(6R)-3-methyl-2H,4H,5H,6H-cyclo-penta[c]pyrazol-6-yl]-1H-imidazole-4-carboxamide], in experiment [1], affinity was put at a Ki of 3 nM. Moreover, the IC50 in experiment [2] is more than 10000 nM; in experiment [4] it was 2 nM. Besides, in experiment [3], the IC90 came out at 416 nM.

`Cc1nc(N2CC3C(C2)C3(F)F)ccc1Cn1cc(C(=O)N[C@@H]2CCc3c(C)n[nH]c32)cn1` (stereo partly drawn) [Example 5, 1-[(6-{6,6-Difluoro-3-azabicyclo[3.1.0]hexan-3-yl}-2-methylpyridin-3-yl)methyl]-N-[(6R)-3-methyl-1H,4H,5H,6H-cyclopenta[c]pyrazol-6-yl]-1H-pyrazole-4-carboxamide] came in with a Ki in experiment [1] of 0.3 nM. Moreover, the values for the IC50 in experiment [2] and in experiment [4] were more than 10000 nM and 0.6 nM, respectively. For the same molecule, in experiment [3], the IC90 is 241 nM.

On to `Cc1nc(N2CC3(CCC3)C2)ccc1Cn1cc(C(=O)N[C@@H]2CCc3c2n[nH]c3C)cn1` [Example 54, 1-[(6-{2-Azaspiro[3.31]heptan-2-yl}-2-methylpyridin-3-yl)methyl]-N-[(6R)-3-methyl-2H,4H,5H,6H-cyclopenta[c]pyrazol-6-yl]-1H-pyrazole-4-], for which the inhibitory constant (Ki) in experiment [1] was found to be 1 nM. The IC50 in experiment [2] was more than 10000 nM; in experiment [4] it was 2 nM. Further, in experiment [3], the IC90 amounted to 944 nM.

On to `Cc1nc(N2CC(C)(F)C2)ccc1Cn1cc(C(=O)N[C@@H]2CCc3c2n[nH]c3C)cn1` [Example 77, 1-{[6-(3-Fluoro-3-methylazetidin-1-yl)-2-methylpyridin-3-yl]methyl}-N-[(6R)-3-methyl-2H,4H,5H,6H-cyclopenta[c]pyrazol-6-yl]-1H-pyrazole-4-carboxamide], for which the Ki in experiment [1] worked out at 4 nM. Moreover, the IC50 in experiment [2] is more than 10000 nM; in experiment [4], 5 nM. Further, in experiment [3], the IC90 worked out at 1110 nM.

Regarding `Cc1nc(N2CC3CC3C2)ccc1Cn1nnc(C(=O)N[C@@H]2CCc3c(C)n[nH]c32)n1` (stereo partly drawn) [Example 9, 2-[(6-{3-Azabicyclo[3.1.0]hexan-3-yl}-2-methylpyridin-3-yl)methyl]-N-[(6R)-3-methyl-1H,4H,5H,6H-cyclopenta[c]pyrazol-6-yl]-2H-1,2,3,4-tetrazole-5-carboxamide], the affinity in experiment [1], expressed as Ki, was 5 nM. For the same molecule, the IC50 in experiment [2] was more than 10000 nM; in experiment [4], 7 nM. The IC90 in experiment [3] amounted to 3480 nM.

In experiment [1], `Cc1nc(N2C[C@@H]3[C@H](C)[C@@H]3C2)ccc1Cn1cc(C(=O)N[C@@H]2CCc3c2n[nH]c3C)cn1` [Example 47, N-[(6R)-3-Methyl-2H,4H,5H,6H-cyclopenta[c]pyrazol-6-yl]-1-({2-methyl-6-[(1R,5S,6S)-6-methyl-3-azabicyclo[3.1.0]hexan-3-yl]pyridin-3-yl}methyl)-1H-pyrazole-4-carboxamide] had a Ki of 0.4 nM. The IC50 is more than 10000 nM in experiment [2] and 0.9 nM in experiment [4]. Further, in experiment [3], the IC90 stood at 445 nM.

The molecule `Cc1nc(N2CC3CC3C2)ccc1Cn1cc(C(=O)N[C@@H]2CCc3c(C)n[nH]c32)c(Cl)n1` (stereo partly drawn) [Example 12, 1-[(6-{3-Azabicyclo[3.1.0]hexan-3-yl}-2-methylpyridin-3-yl)methyl]-3-chloro-N-[(6R)-3-methyl-1H,4H,5H,6H-cyclopenta[c]pyrazol-6-yl]-1H-pyrazole-4-carboxamide] displayed an inhibitory constant (Ki) in experiment [1] of 2 nM. For the same molecule, the IC50 in experiment [2] is more than 10000 nM; in experiment [4] it was 1 nM. In addition, in experiment [3], the IC90 turned out to be 3090 nM.

`Cc1nc(N2CC3CC3C2)ccc1Cc1c[nH]c(C(=O)N[C@@H]2CCc3c(C)n[nH]c32)c1` (stereo partly drawn) [Example 7, 4-[(6-{3-Azabicyclo[3.1.0]hexan-3-yl}-2-methylpyridin-3-yl)methyl]-N-[(6R)-3-methyl-1H,4H,5H,6H-cyclopenta[c]pyrazol-6-yl]-1H-pyrrole-2-carboxamide] had a Ki in experiment [1] of 0.7 nM. For the same molecule, the IC50 in experiment [2] was more than 10000 nM; in experiment [4] it was 1 nM. Further, the concentration for an effect of 90% (IC90) in experiment [3] was 342 nM.

As for `Cc1nc(N2CC3CC3C2)ncc1Cn1cc(C(=O)N[C@@H]2CCc3c(C)n[nH]c32)nn1` (stereo partly drawn) [Example 87, 1-[(2-{3-Azabicyclo[3.1.0]hexan-3-yl}-4-methylpyrimidin-5-yl)methyl]-N-[(6R)-3-methyl-1H,4H,5H,6H-cyclopenta[c]pyrazol-6-yl]-1H-1,2,3-triazole-4-carboxamide], in experiment [1], affinity was put at a Ki of 1 nM. Further, the IC50 was more than 10000 nM in experiment [2] and 2 nM in experiment [4]. In addition, the IC90 in experiment [3] was found to be 1170 nM.

For `Cc1nc(N2CC3CC3C2)ccc1Cn1cc(C(=O)N[C@@H]2CCc3c2n[nH]c3C)c2cc(C(=O)O)ccc21` (stereo partly drawn) [Example 108, 1-[(6-{3-Azabicyclo[3.1.0]hexan-3-yl}-2-methylpyridin-3-yl)methyl]-3-{[(6R)-3-methyl-2H,4H,5H,6H-cyclopenta[c]pyrazol-6-yl]carbamoyl}-1H-indole-5-carboxylic acid], the Ki in experiment [1] stood at 6 nM. Further, the IC50 is more than 10000 nM in experiment [2] and 1 nM in experiment [4]. The IC90 in experiment [3] is 776 nM.

`Cc1nc(N2CCC(F)(F)C2)ccc1Cn1cc(C(=O)N[C@@H]2CCc3c2n[nH]c3C)cn1` [Example 37, 1-{[6-(3,3-Difluoropyrrolidin-1-yl)-2-methylpyridin-3-yl]methyl}-N-[(6R)-3-methyl-2H,4H,5H,6H-cyclopenta[c]pyrazol-6-yl]-1H-pyrazole-4-carboxamide] gave a Ki in experiment [1] of 2 nM. The figures for the IC50 in experiment [2] and in experiment [4] were more than 10000 nM and 7 nM, respectively. For the same molecule, in experiment [3], the IC90 is 4980 nM.

For `Cc1nc(N2CC3CC3C2)ccc1Cn1cc(C(=O)N[C@@H]2CCc3c(C)n[nH]c32)cn1` (stereo partly drawn) [Example 3, 1-[(6-{3-Azabicyclo[3.1.0]hexan-3-yl}-2-methylpyridin-3-yl)methyl]-N-[(6R)-3-methyl-1H,4H,5H,6H-cyclopenta[c]pyrazol-6-yl]-1H-pyrazole-4-carboxamide], affinity in experiment [1] was put at a Ki of 0.5 nM. Further, the IC50 in experiment [2] was more than 10000 nM; in experiment [4], 0.8 nM. The IC90 in experiment [3] came to 679 nM.

In experiment [1], `Cc1nc(N2CC3CC3C2)ccc1Cn1cc(C(=O)N[C@@H]2CCc3c2n[nH]c3C)nc1C1CC1` (stereo partly drawn) [Example 96, 1-[(6-{3-Azabicyclo[3.1.0]hexan-3-yl}-2-methyl-pyridin-3-yl)methyl]-2-cyclopropyl-N-[(6R)-3-methyl-2H,4H,5H,6H-cyclopenta[c]pyrazol-6-yl]-1H-imidazole-4-carboxamide] yielded a Ki of 1 nM. The IC50 in experiment [2] was more than 10000 nM; in experiment [4] it was 2 nM. Moreover, in experiment [3], the IC90 came out at 781 nM.

`Cc1nc(N2CC3CC3C2)ccc1Cn1cc(C(=O)N[C@@H]2CCc3c2n[nH]c3C)nc1C(F)(F)F` (stereo partly drawn) [Example 98, 1-[(6-{3-Azabicyclo[3.1.0]hexan-3-yl}-2-methyl-pyridin-3-yl)methyl]-N-[(6R)-3-methyl-2H,4H,5H,6H-cyclopenta[c]pyrazol-6-yl]-2-(trifluoromethyl)-1H-imidazole-4-carboxamide] yielded an inhibition constant (Ki) in experiment [1] of 6 nM. In addition, the IC50 is more than 10000 nM in experiment [2] and 5 nM in experiment [4]. Moreover, the IC90 in experiment [3] was determined as 3140 nM.

The Ki is the dissociation constant of the complex between target and ligand, obtained from inhibition or displacement. The IC50 is the concentration at which inhibition is half-maximal. Usually IC90 stands for the concentration at which the effect reaches the 90% level.
